Data: a melting point compilation (Tetko et al.; mined from patent text by program, amines drawn as free bases though some values may be those of a salt)

Row | Structure (SMILES) | melting point [°C]
1 | CCOC(=O)c1c(C)nc(CCl)c(C(=O)OCC)c1-c1cccc([N+](=O)[O-])c1 | 76 to 78
2 | CN(C)C(=O)Nc1cccc(S(N)(=O)=O)c1 | 193 to 194
3 | C#CCOc1cc(-c2nn(C)c(S(C)=O)c2C)c(F)cc1Cl (stereo unspecified) | 93 to 96
4 | CCc1cnc2c(NC(=O)c3c(Cl)cccc3Cl)cccc2c1C(N)=O | 247 to 248
5 | CC1(CCN2C(=O)c3cccc([N+](=O)[O-])c3C2=O)OCCO1 | 90
6 | CCC(O)C1C(N2CCN(C)CC2)=Nc2ccccc2N=C1N1CCN(C)CC1 (stereo unspecified) | 163 to 166
7 | CC1(C)CC(SCc2cc3c(cc2Cl)OCO3)=NO1 | 88
8 | O=C(Nc1ccc(Cl)cn1)c1cc(Cl)ccc1NCC1CCN(C(=O)c2cccs2)CC1 | 163 to 165
9 | CCOC(=O)C1Cc2c(ccc(OC)c2OCc2ccccc2)CN1C(=O)C(c1ccccc1)c1ccccc1 (racemic) | 111 to 113
10 | O=C(O)CCCNC(=O)CCCCC1CCSS1 (stereo unspecified) | 56 to 58
11 | COc1cc2c(cc1OC)CC(NC(=O)N(C)O)C2 | 165 to 166
12 | COc1cc(Nc2c(C#N)cnc3cc(-c4ccc(CN5CCC[C@@H]5C(N)=O)o4)ccc23)c(Cl)cc1Cl | 121 to 126
13 | Cn1cnc2cc(NN)ccc2c1=O | 208 to 211
14 | CC(=O)NC1c2cc3nonc3cc2OC(C)(C)C1OC(C)=O (stereo unspecified) | 236 to 238
15 | Nc1nc2ccccc2c2c1ncn2CCCCCC(=O)N1CCOCC1 | 166 to 168
16 | CS(=O)(=O)c1ccc(C(=O)c2cnoc2C2CC2)c2c1OC(F)(F)O2 | 164 to 165
17 | O=C(O)c1ccccc1C(=O)NCCc1cccnc1 | 183 to 185
18 | CCCC(=O)c1cnc2c(OC)cccc2c1Nc1ccccc1CO | 159 to 161
19 | CC(=O)NCC1CC(c2ccc(-n3ccc(C#N)c3)c(F)c2)=NO1 (single isomer, unassigned; (-)) | 159 to 161
20 | N#CC(=NOS(=O)(=O)c1ccc(C(=O)Cl)cc1)c1ccccc1 | 193 to 195
21 | O=[N+]([O-])c1ccc(C=C2c3ccccc3C=Cc3ccccc32)cc1 | 152
22 | O=C(O)CCCCc1cn(-c2cccnc2)c2ccccc12 | 122 to 124
23 | CCc1c(Sc2cc(Cl)cc(Cl)c2)c(CO)nn1CCO | 89 to 90
24 | CCOc1ccc(-c2nnc(C#N)o2)cc1 | 110

Row | Structure (SMILES) | melting point [°C]
25 | COc1cc(N)c(Cl)cc1C(=O)NCC1CCN(CCCCCC(=O)c2ccc(Cl)c(Cl)c2)CC1 | 203 to 205
26 | CN1CCN(C2=CCCc3ccc(OCc4ccc(Cl)cc4)cc32)CC1 | 115 to 116
27 | CS(=O)(=O)c1ccc(-c2cnn(CCC(F)=C(F)F)c(=O)c2-c2ccc(F)cc2)cc1 | 131 to 132
28 | CNc1nc(-c2ccc(C(F)(F)F)cc2)c2cc(C)sc2n1 | 233
29 | COc1cc(OC)c(C(=O)C=Cc2ccc(SC)cc2)c(OP(=O)(O)O)c1 | 63 to 66
30 | COCCO[C@@H]1c2ccc3c(nc(C)n3C3CC3)c2O[C@H](c2ccccc2)[C@H]1O | 183
31 | Cc1cccc(C)c1CNc1cc(C(=O)N(C)C)nc2c(C)c(C)[nH]c12 | 315
32 | O=CNNc1ccc([N+](=O)[O-])cc1 | 183 to 185
33 | C=CCOc1ccc(S(=O)(=O)N2CCN(C)CC2)cc1-c1nc2c(CCC)nn(C)c2c(=O)[nH]1 | 151 to 153
34 | COc1ccc(NS(=O)(=O)c2ccc(N)cc2OC)cc1 | 51 to 54
35 | O=C(OCC1c2ccccc2-c2ccccc21)N1CCC(n2nc(-c3ccccc3)[nH]c2=O)CC1 | 142
36 | Cc1cc2c(cc1O)C(C)(C)CC1(CC(C)(C)c3cc(OC(C)(C)CO)c(C)cc3O1)O2 (stereo unspecified) | 188 to 189
37 | COc1ccc(CCN(C)CCCN(C(C)C)S(=O)(=O)c2ccc(Cl)c(Cl)c2)cc1OC | 62 to 64
38 | Cc1c(NC(=O)CC(C)(C)C)cc2c(c1C)OC(C)(C)C2(O)c1cccc(C(C)O)c1 (stereo unspecified) | 206 to 207
39 | CC=C1CCC2C3CC=C4CC(OC(C)=O)CC(OC(C)=O)C4(C)C3CCC12C (stereo unspecified) | 90 to 91
40 | FN(F)C12CC3CC(CC(C3)C1)C2 | 113 to 115
41 | CCOC(=NC(=O)c1cc(Cl)nc(Cl)c1)N1Cc2ccccc2-c2ccccc2C1 | 151 to 152
42 | CCCCCCCCn1sc(Cl)c(Cl)c1=O | 44 to 47
43 | CS(=O)(=O)Nc1cc(-c2ccc(S(C)(=O)=O)cc2)c(-c2ccc(F)cc2)s1 | 87 to 90
44 | CCOC(=O)CC(=O)Nc1ccc(Cl)cc1 | 82
45 | CCn1c(Br)c(Br)c(C#N)c1Br | 108 to 110
46 | O=C(NCCc1ccccn1)N(c1ccccc1)c1ccccc1 | 109
47 | O=C1NCNC12CCCc1ccccc12 (stereo unspecified) | 181 to 183
48 | CC(C)CC(=O)Nc1ccccc1 | 67 to 68

Row | Structure (SMILES) | melting point [°C]
49 | O=C(NC1CC1)c1ccccc1C(c1ccc(O)cc1)c1ccc(O)cc1 | 221 to 226
50 | CN1CC=C(c2c[nH]c3c(Cl)c(Cl)ccc23)CC1 | 246 to 249
51 | C=CCOC(=O)C(C)(C)ON1C(=O)c2ccccc2C1=O | 51 to 53
52 | CC(C)(C)c1cc(CC2SC(=S)NC2=O)cc(C(C)(C)C)c1O (stereo unspecified) | 178 to 179
53 | CN(C(=O)OC(C)(C)C)c1cc(Oc2cccc(-c3ccccc3)c2)ccc1N | 114 to 115
54 | O=C(O)CN1CC(NC(=O)Cc2ccccc2)C1=O (stereo unspecified) | 144 to 145
55 | COC(=O)Cc1cccc(NC(=O)NC2c3cc(C#N)ccc3OC(C)(C)C2O)c1 (stereo unspecified) | 72 to 75
56 | CS(=O)(=O)C(=C1CN(C(c2ccccc2)c2ccccc2)C1)c1cccc(I)c1 | 198
57 | COC(=O)C(O)(c1cc(F)cc(F)c1)c1cc(F)cc(F)c1 | 113 to 114
58 | COc1ccc(C(=O)C2=C(O)C(=O)N(c3nncs3)C2c2ccc(C(C)(C)C)cc2)cc1 (stereo unspecified) | 289 to 291
59 | COc1ccc(-c2csc3ccc([N+](=O)[O-])c(C(=O)N4CCOCC4)c23)cc1OC | 144
60 | COc1ccc2c(c1[N+](=O)[O-])CN(S(C)(=O)=O)CC(=O)N2 | 222 to 226
61 | CC(C)(NC(=O)C1=C(C(=O)Nc2cc(OC3CCCC3)c(Cl)cc2F)CCCC1)c1ccc(Cl)cc1 | 218 to 219
62 | CCCCC1OC(=O)c2cc(N)c(N)cc21 (stereo unspecified) | 94 to 96
63 | O=[N+]([O-])C1=Cc2cc3c(cc2OC1)OCO3 | 139
64 | O=C(NCc1cccnc1)c1ccc2n1Cc1ccccc1N(C(=O)c1ccc(-c3ccccc3CO)cc1)C2 | 119 to 121
65 | Cc1nn(C)c(C)c1C(=O)Nc1cccc2c1C(C)CC2(C)C (stereo unspecified) | 176
66 | O=C(NC(=S)N1CCN(c2nc3cccccc-3n2)CC1)c1ccccc1 | 182 to 185
67 | COc1cc(O)c(C=O)c2cc(-c3ccc(O)cc3)oc12 | 254 to 255
68 | CCCc1ccc(S(=O)(=O)NN2CCN(C)CC2)cc1 | 153 to 154
69 | CCC(CC)Nc1c(NCc2ccc(Cl)cc2Cl)c(=O)c1=O | 210 to 211
70 | CNC(=O)C1CCNC(c2ccnc3ccccc23)C1 (stereo unspecified) | 250 to 254
71 | CCn1cc(C(=O)O)c(=O)c2c1SC(=NO)C2 | 332 to 334
